Laboratory results published in PubChem BioAssay (NCI).
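96-well plates; 48 h exposure; 5 concentrations. Endpoints by linear interpolation between flanking doses. Not reached: highest tested concentration assigned. TGI is the concentration that stops growth completely.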

Experiments:
Assay in all cases: DTP human tumour cell line panel, 48 h
[1] = system: A498 renal
[2] = system: A549 NSCLC
[3] = system: ACHN renal
[4] = system: CCRF-CEM leukemia
[5] = system: COLO 205 colon
[6] = system: DLD-1 colon
[7] = system: DMS 114 small cell lung
[8] = system: DMS 273 small cell lung
[9] = system: EKVX NSCLC
[10] = system: HCC-2998 colon
[11] = system: HCT-116 colon
[12] = system: HCT-15 colon
[13] = system: HL-60(TB) leukemia
[14] = system: IGROV1 ovarian
[15] = system: K-562 leukemia
[16] = system: KM12 colon
[17] = system: KM20L2 colon
[18] = system: LOX IMVI melanoma
[19] = system: LXFL 529 NSCLC
[20] = system: M19-MEL melanoma
[21] = system: MALME-3M melanoma
[22] = system: MOLT-4 leukemia
[23] = system: NCI-H23 lung
[24] = system: NCI-H460 lung
[25] = system: NCI-H522 lung
[26] = system: OVCAR-5 ovarian
[27] = system: OVCAR-8 ovarian
[28] = system: RPMI-8226 leukemia
[29] = system: RXF 393 renal
[30] = system: SF-268 CNS
[31] = system: SF-295 CNS
[32] = system: SF-539 CNS
[33] = system: SK-MEL-2 melanoma
[34] = system: SK-MEL-28 melanoma
[35] = system: SK-MEL-5 melanoma
[36] = system: SN12C renal
[37] = system: SNB-19 CNS
[38] = system: SNB-78 CNS
[39] = system: SR leukemia
[40] = system: SW-620 colon
[41] = system: TK-10 renal
[42] = system: U251 CNS
[43] = system: UACC-257 melanoma
[44] = system: UACC-62 melanoma
[45] = system: UO-31 renal
[46] = system: 786-0 renal
[47] = system: CAKI-1 renal
[48] = system: HOP-92 NSCLC
[49] = system: HT29 colon
[50] = system: M14 melanoma
[51] = system: NCI-H226 lung
[52] = system: OVCAR-3 ovarian
[53] = system: OVCAR-4 ovarian
[54] = system: SK-OV-3 ovarian
[55] = system: SNB-75 CNS
[56] = system: XF 498 CNS

O=C(N/N=C/C=C/c1ccccc1)[C@H](O)[C@@H](O)C(=O)N/N=C/C=C/c1ccccc1
TGI [1]: > 100 µM | TGI [2]: > 100 µM | TGI [3]: > 100 µM | TGI [4]: > 100 µM | TGI [5]: > 100 µM | TGI [6]: > 100 µM | TGI [7]: > 100 µM | TGI [8]: > 100 µM | TGI [9]: > 100 µM | TGI [10]: > 100 µM | TGI [11]: > 100 µM | TGI [12]: > 100 µM | TGI [13]: > 100 µM | TGI [14]: > 100 µM | TGI [15]: > 100 µM | TGI [16]: > 100 µM | TGI [17]: > 100 µM | TGI [18]: > 100 µM | TGI [19]: > 100 µM | TGI [20]: > 100 µM | TGI [21]: > 100 µM | TGI [22]: > 100 µM | TGI [23]: > 100 µM | TGI [24]: > 100 µM | TGI [25]: > 100 µM | TGI [26]: > 100 µM | TGI [27]: > 100 µM | TGI [28]: > 100 µM | TGI [29]: > 100 µM | TGI [30]: > 100 µM | TGI [31]: > 100 µM | TGI [32]: > 100 µM | TGI [33]: > 100 µM | TGI [34]: > 100 µM | TGI [35]: > 100 µM | TGI [36]: > 100 µM | TGI [37]: > 100 µM | TGI [38]: > 100 µM | TGI [39]: > 100 µM | TGI [40]: > 100 µM | TGI [41]: > 100 µM | TGI [42]: > 100 µM | TGI [43]: > 100 µM | TGI [44]: > 100 µM | TGI [45]: > 100 µM

O=C(O)C(CS)Nc1c2ccccc2nc2ccccc12 (stereo unspecified)
TGI [46]: > 100 µM | TGI [2]: > 100 µM | TGI [3]: > 100 µM | TGI [47]: > 100 µM | TGI [4]: > 100 µM | TGI [5]: > 100 µM | TGI [6]: > 100 µM | TGI [7]: > 100 µM | TGI [8]: > 100 µM | TGI [9]: > 100 µM | TGI [10]: > 100 µM | TGI [12]: > 100 µM | TGI [13]: > 100 µM | TGI [48]: > 100 µM | TGI [49]: > 100 µM | TGI [14]: > 100 µM | TGI [15]: > 100 µM | TGI [16]: > 100 µM | TGI [17]: > 100 µM | TGI [18]: > 100 µM | TGI [19]: > 100 µM | TGI [50]: > 100 µM | TGI [20]: > 100 µM | TGI [21]: > 100 µM | TGI [22]: > 100 µM | TGI [51]: > 100 µM | TGI [23]: > 100 µM | TGI [24]: > 100 µM | TGI [25]: > 100 µM | TGI [52]: > 100 µM | TGI [53]: 47.1 µM | TGI [26]: > 100 µM | TGI [27]: > 100 µM | TGI [28]: > 100 µM | TGI [29]: > 100 µM | TGI [30]: > 100 µM | TGI [31]: > 100 µM | TGI [32]: > 100 µM | TGI [33]: > 100 µM | TGI [34]: > 100 µM | TGI [54]: > 100 µM | TGI [36]: > 100 µM | TGI [37]: > 100 µM | TGI [55]: > 100 µM | TGI [39]: > 100 µM | TGI [40]: > 100 µM | TGI [41]: > 100 µM | TGI [42]: > 100 µM | TGI [43]: > 100 µM | TGI [45]: 98 µM | TGI [56]: > 100 µM
